Test results reported in patent US10231967B2, “Compounds and their use as BACE inhibitors” (ASTRAZENECA AB, priority 2010, dated 2019).

tested on: sAPPβ release in SH-SY5Y cells; experiment: sAPPβ release assay; type: cell-based; details: Homo sapiens, SH-SY5Y, 17 h, compounds incubated 17 h, MSD detection
Experimental: Thaw cells and seed at a conc. of around 10000 cells/well in DMEM/F-12 with Glutamax, 10% FCS and 1% non-essential amino acids to a 384-well tissue culture treated plate, 100 μL cell susp/well. […] The cell medium was removed, followed by addition of 30 μL compound diluted in DMEM/F-12 with Glutamax, 10% FCS, 1% non-essential amino acids and 1% PeSt to a final conc. of 1% DMSO. The compounds were incubated with the cells for 17 h (overnight) at 37° C., 5% CO2. Meso Scale Discovery (MSD) plates were used for the detection of sAPPβ release. MSD sAPPβ plates were blocked in 1% BSA in Tris wash buffer (40 μL/well) for 1 h on shake at r.t. and washed 1 time in Tris wash buffer (40 μL/well). 20 μL of medium was transferred to the pre-blocked and washed MSD sAPPβ microplates, and the cell plates were further used in an ATP assay to measure cytotoxicity. The MSD plates were incubated with shaking at r.t. for 2 h and the media discarded. 10 μL detection antibody was added (1 nM) per well followed by incubation with shaking at r.t. for 2 h and then discarded. 40 μL Read Buffer was added per well and the plates were read in a SECTOR Imager.

**Q.** For CC1=NC2(N=C1N)c1cc(Br)ccc1CC21CCC(F)(F)CC1 (stereo not drawn) [Example 27, 6′-Bromo-4,4-difluoro-5″-methyl-3′H-dispiro[cyclohexane-1,2′-indene-1′,2″-imidazol]-4″-amine], which IC50 is on record?
**A.** 399 nM

**Q.** With CC1=NC2(N=C1N)c1cc(-c3cncc(Cl)c3)ccc1CC21CCC(F)(F)CC1 (stereo not drawn) [Example 28c, 6′-(5-Chloropyridin-3-yl)-4,4-difluoro-5″-methyl-3′H-dispiro[cyclohexane-1,2′-indene-1′,2″-imidazol]-4″-amine] as the molecule, how does the IC50 read?
**A.** 109 nM

**Q.** How did the IC50 turn out when CC#Cc1cncc(-c2ccc3c(c2)C2(N=C(C)C(N)=N2)C2(CCC(F)(F)CC2)C3)c1 (stereo not drawn) [Example 28h, 4,4-Difluoro-5″-methyl-6′-[5-(prop-1-yn-1-yl)pyridin-3-yl]-3′H-dispiro[cyclohexane-1,2′-indene-1′,2″-imidazol]-4″-amine] was run?
**A.** 18 nM

**Q.** Which IC50 does the source give for CC1=N[C@]2(C[C@@H]([C@@H]3CCCOC3)Oc3ccc(-c4cccc(Cl)c4)cc32)N=C1N [Example 48 Isomer 1, (2S,4R)-6-(3-chlorophenyl)-5′-methyl-2-[(3R)-tetrahydro-2H-pyran-3-yl]-2,3-dihydrospiro[chromene-4,2′-imidazol]-4′-amine] here?
**A.** 20 nM

**Q.** CC1=N[C@]2(C[C@H]([C@H]3CCCOC3)Oc3ccc(-c4cccc(Cl)c4)cc32)N=C1N [Example 48 Isomer 4, (2R,4R)-6-(3-chlorophenyl)-5′-methyl-2-[(3 S)-tetrahydro-2H-pyran-3-yl]-1′,2,3,3′-tetrahydrospiro[chromene-4,2′-imidazol]-4′-amine] was tested. Which IC50 did it give?
**A.** 689 nM

**Q.** How did the IC50 turn out when CC1=N[C@]2(C[C@H]([C@@H]3CCCOC3)Oc3ccc(-c4cccc(Cl)c4)cc32)N=C1N [Example 48 Isomer 7, (2R,4R)-6-(3-chlorophenyl)-5′-methyl-2-[(3R)-tetrahydro-2H-pyran-3-yl]-1′,2,3,3′-tetrahydrospiro[chromene-4,2′-imidazol]-4′-amine] was run?
**A.** 191 nM

**Q.** For CC1=N[C@]2(C[C@@H]([C@H]3CCCOC3)Oc3ccc(-c4cccc(Cl)c4)cc32)N=C1N [Example 48 Isomer 8, (2S,4R)-6-(3-chlorophenyl)-5′-methyl-2-[(3S)-tetrahydro-2H-pyran-3-yl]-1′,2,3,3′-tetrahydrospiro[chromene-4,2′-imidazol]-4′-amine], which IC50 is on record?
**A.** 204 nM

**Q.** How did the IC50 turn out when CC#Cc1cncc(-c2ccc3c(c2)C2(CCC3)N=C(C)C(N)=N2)c1 (stereo not drawn) [Example 53, 5-Methyl-7′-(5-(prop-1-ynyl)pyridin-3-yl)-3′,4′-dihydro-2′H-spiro[imidazole-2,1′-naphthalen]-4-amine] was run?
**A.** 21 nM

**Q.** CC1=NC2(N=C1N)c1cc(-c3cncc(Cl)c3)ccc1CC21CCC1 (stereo not drawn) [Example 55, 6′-(5-Chloropyridin-3-yl)-5″-methyl-3′H-dispiro[cyclobutane-1,2′-indene-1′,2″-imidazol]-4″-amine] was tested. Which IC50 did it give?
**A.** 118 nM

**Q.** CC#Cc1cncc(-c2ccc3c(c2)C2(N=C(C)C(N)=N2)C2(CCC2)C3)c1 (stereo not drawn) [Example 56, 5″-Methyl-6′-[5-(prop-1-yn-1-yl)pyridin-3-yl]-3′H-dispiro[cyclobutane-1,2′-indene-1′,2″-imidazol]-4″-amine] was tested. Which IC50 did it give?
**A.** 24 nM

**Q.** CC1=NC2(N=C1N)c1cc(C#CC3CC3)ccc1CC21CCC1 (stereo not drawn) [Example 58, 6′-(Cyclopropylethynyl)-5″-methyl-3′H-dispiro[cyclobutane-1,2′-indene-1′,2″-imidazol]-4″-amine] was tested. Which IC50 did it give?
**A.** 219 nM

**Q.** How did the IC50 turn out when CO[C@H]1CC[C@]2(CC1)Cc1ccc(-c3cnc(C)c(Cl)c3)cc1C21N=C(C)C(N)=N1 (stereo partly drawn) [Example 60, (1r,4r)-6′-(5-Chloro-6-methylpyridin-3-yl)-4-methoxy-5″-methyl-3′H-dispiro[cyclohexane-1,2′-indene-1′,2″-imidazol]-4″-amine] was run?
**A.** 8.7 nM

**Q.** For CO[C@H]1CC[C@]2(CC1)Cc1ccc(-c3cnc(C)c(Cl)c3)cc1[C@@]21N=C(C)C(N)=N1 [Example 61, (1r,1′R,4R)-6′-(5-Chloro-6-methylpyridin-3-yl)-4-methoxy-5″-methyl-3′H-dispiro[cyclohexane-1,2′-indene-1′,2″-imidazol]-4″-amine], which IC50 is on record?
**A.** 3.1 nM

**Q.** CO[C@H]1CC[C@]2(CC1)Cc1ccc(-c3cc(Cl)cnc3C)cc1C21N=C(C)C(N)=N1 (stereo partly drawn) [Example 62, (1r,4r)-6′-(5-Chloro-2-methylpyridin-3-yl)-4-methoxy-5″-methyl-3′H-dispiro[cyclohexane-1,2′-indene-1′,2″-imidazol]-4″-amine] was tested. Which IC50 did it give?
**A.** 8.6 nM

**Q.** With CCC1=NC2(N=C1N)c1cc(-c3cncc(Cl)c3)ccc1C[C@]21CC[C@@H](OC)CC1 (stereo partly drawn) [Example 65, (1r,4r)-6′-(5-Chloropyridin-3-yl)-5-ethyl-4-methoxy-3′H-dispiro[cyclohexane-1,2′-indene-1′,2″-imidazol]-4″-amine] as the molecule, how does the IC50 read?
**A.** 3.4 nM

**Q.** For CC#Cc1cncc(-c2ccc3c(c2)C2(N=C(N)C(CC)=N2)[C@]2(CC[C@H](OC)CC2)C3)c1 (stereo partly drawn) [Example 67, (1r,4r)-5″-Ethyl-4-methoxy-6′-[5-(prop-1-yn-1-yl)pyridin-3-yl]-3′H-dispiro[cyclohexane-1,2′-indene-1′,2″-imidazol]-4″-amine], which IC50 is on record?
**A.** 0.81 nM

same assay, conditions: Homo sapiens, compounds incubated 17 h, MSD detection

**Q.** CC1=NC2(N=C1N)c1cc(-c3cccc(Cl)c3)ccc1CC21CCOCC1 (stereo not drawn) [Example 26a, 6′-(3-Chlorophenyl)-5-methyl-2″,3″,5″,6″-tetrahydro-3′H-dispiro[imidazole-2,1′-indene-2′,4″-pyran]-4-amine] was tested. Which IC50 did it give?
**A.** 53 nM

**Q.** How did the IC50 turn out when CC1=NC2(N=C1N)c1cc(-c3ccc(F)c(Cl)c3)ccc1CC21CCOCC1 (stereo not drawn) [Example 26c, 6′-(3-Chloro-4-fluorophenyl)-5-methyl-2″,3″,5″,6″-tetrahydro-3′H-dispiro[imidazole-2,1′-indene-2′,4″-pyran]-4-amine] was run?
**A.** 140 nM

**Q.** With CC1=NC2(N=C1N)c1cc(NC(=O)c3ccc(Cl)cn3)ccc1CC21CCC(F)(F)CC1 (stereo not drawn) [Example 28d, N-(4″-Amino-4,4-difluoro-5″-methyl-3′H-dispiro[cyclohexane-1,2′-indene-1′,2″-imidazol]-6′-yl)-5-chloropyridine-2-carboxamide] as the molecule, how does the IC50 read?
**A.** 89 nM

**Q.** For COC1CCC2(CC1)Oc1ccc(Br)cc1C21N=C(C)C(N)=N1 (stereo not drawn) [Example 29, 5′-bromo-4-methoxy-5″-methyldispiro[cyclohexane-1,2′-[1]benzofuran-3′,2″-imidazol]-4″-amine], which IC50 is on record?
**A.** 848 nM

**Q.** COC1CCC2(CC1)Oc1ccc(-c3cncc(Cl)c3)cc1C21N=C(C)C(N)=N1 (stereo not drawn) [Example 30d, 5′-(5-Chloropyridin-3-yl)-4-methoxy-5′-methyldispiro[cyclohexane-1,2′-[1]benzofuran-3′,2″-imidazol]-4″-amine] was tested. Which IC50 did it give?
**A.** 97 nM

**Q.** With CC1=NC2(CCCc3ccc(-c4cncc(Cl)c4)cc32)N=C1N (stereo not drawn) [Example 52, 7′-(5-Chloropyridin-3-yl)-5-methyl-3′,4′-dihydro-2′H-spiro[imidazole-2,1′-naphthalen]-4-amine] as the molecule, how does the IC50 read?
**A.** 91 nM

**Q.** For CC#Cc1cncc(-c2ccc3c(c2)C2(N=C(C)C(N)=N2)[C@]2(CC[C@H](OC)CC2)C3)c1C (stereo partly drawn) [Example 63, (1r,4r)-4-Methoxy-5″-methyl-6′-[4-methyl-5-(prop-1-yn-1-yl)pyridin-3-yl]-3′H-dispiro[cyclohexane-1,2′-indene-1′,2″-imidazol]-4″-amine], which IC50 is on record?
**A.** 29 nM

**Q.** For CCC1=NC2(N=C1N)c1cc(Br)ccc1C[C@]21CC[C@@H](OC)CC1 (stereo partly drawn) [Example 64, (1r,4r)-6′-Bromo-5″-ethyl-4-methoxy-3′H-dispiro[cyclohexane-1,2′-indene-1′,2″-imidazol]-4″-amine], which IC50 is on record?
**A.** 125 nM
